Legend:
BMDCs = assay: Multiplex qPCR of transcripts in stimulated BMDCs; type: cell-based, mouse; conditions: 2 days pre-treatment, 4 hr LPS, R848 or zymosan
Method: Bone marrow-derived DCs were differentiated from C57BL/6 bone marrow in the presence of GM-CSF-conditioned media. CD11c^+ CX3CR1^hi myeloid cells and CD11c^+ CX3CR1^− DCs were isolated from the small intestine lamina propria of Cx3cr1^eGFP/+ mice (12). Detection of cell-surface Thy1.1 expression on BMDCs from 10BiT reporter mice was conducted as described previously (24). Cell viability was estimated by change in total cellular ATP levels using CellTiterGlo assays (Promega). Preparation of recombinant SIK proteins and IC50 measurements were conducted as described previously (21). Total RNA was extracted using a NucleoSpin 96 RNA isolation kit (Macherey-Nagel) followed by cDNA synthesis and multiplex RT-PCR using a microfluidic dynamic array (Fluidigm). The concentrations of TNF-α, IL-6, IL-10, IL-12p40, IL-1β and RANTES in culture supernatants were detected using a FlexSet Cytometric bead array (BD Biosciences). Alternatively, IL-10 secretion was quantified using ELISA (BD Biosciences) or AlphaLISA (PerkinElmer) assays. NO production was estimated based on nitrate content in culture medium using the Greiss reagent.
C57BL/6 mice were euthanized and bone marrow harvested from femurs and tibias as described previously (Graham D B, et al. (2007) An ITAM-signaling pathway controls cross-presentation of particulate but not soluble antigens in dendritic cells. The Journal of experimental medicine 204(12):2889-2897). BMDCs were differentiated DMEM supplemented with 2 mM GlutaMAX, 10% (vol/vol) FBS, penicillin, streptomycin and 2% mouse GM-CSF conditioned media derived from TOPO cells. Cultures were differentiated for 7 days and routinely analyzed for >90% CD11c (APC anti-CD11c clone HL3; BD Biosciences) positivity by flow cytometry before use in experiments. Lentiviral transduction of bone marrow cultures was conducted by addition of 293T culture supernatants containing lentiviral particles encoding the CREB dependent luciferase reporter construct or CRTC3 targeting or control shRNAs one day post-isolation. Stable integration of lentiviral shRNA constructs was selected by addition of puromycin (3 μg/mL) on day 4 post-transduction. After 2 days, stably transduced BMDCs were released from selection and used in subsequent assays. […]
Total RNA was extracted using a NucleoSpin 96 RNA isolation kit (Macherey-Nagel). […] Relative gene expression was calculated from Ct values and normalized against ACTB mRNA levels as described previously (Pfaffl MW (2001) A new mathematical model for relative quantification in real-time RT-PCR. Nucleic acids research 29(9):e45). […]

human MΦs or DCs = assay: Cytokine production by human macrophages and dendritic cells from PBMCs (ELISA); type: cell-based; conditions: 0.5 μM, 24 hr, zymosan 18 hr
Method: Heparinized blood from healthy donors was obtained from Research Blood Components. Peripheral blood mononuclear cells (PBMCs) were obtained by density centrifugation of blood diluted 50% (vol/vol) with PBS over Ficoll-Paque (Pharmacia Biotech). PBMCs were further purified by plastic adherence for 1 hr and washed 5× with PBS. Monocytes within the PBMC pool were differentiated towards DCs in X-VIVO media (Lonza) supplemented with IL-4 (50 ng/mL, R&D Systems) and GM-CSF (50 ng/mL, R&D Systems) or macrophages in X-VIVO media supplemented with GM-CSF (5 ng/mL) and IFN-γ (5 ng/mL; PeproTech) for 7 days as described previously (Smeekens S P, et al. (2013) Functional genomics identifies type I interferon pathway as central for host defense against Candida albicans. Nature communications 4:1342). After third day, half of the culture medium was replaced by fresh DC/macrophages differentiation medium.
After stimulation of cells with microbial ligands, the culture medium was removed, clarified by centrifugation for 10 min at 14,000×g, and the concentration of TNF-α, IL-6, IL-10, IL-12p40, IL-1β and RANTES were measured using FlexSet Cytokine Bead Array (BD Biosciences) according to the manufacturer's instructions. Where indicated, ELISAs were used to detect IL-10 and IL-12p70 (BD Biosciences) according to the manufacturer's instructions. […]

SGK = assay: Protein kinase assay against SGK (selectivity); type: biochemical; conditions: DMSO set to 100%

Activity of protein kinase treated with 0.1 μM of I-1 (% control (DMSO)) SGK (SGK; 0.1 μM) | Activity of protein kinase treated with 1 μM of I-1 (% control (DMSO)) SGK (SGK; 1 μM) | Compound | IL-10 mRNA levels (BMDCs) | abundance of Arg1 and Nos2 transcripts (BMDCs) | IL-10 production by human MΦs or DCs (human MΦs or DCs) | IL-12p70 secretion by human MΦs or DCs (human MΦs or DCs)
 |  | COc1ccc(N(C(=O)Nc2c(C)cccc2C)c2cc(Nc3ccc(N4CCN(C)CC4)cc3)ncn2)c(OC)c1 [HG-9-91-01] | robustly enhanced | significantly blunted | enhanced IL-10 production | dramatically reducing IL-12p70 secretion
96 % control (DMSO) | 100 % control (DMSO) | Cc1cccc(C)c1NC(=O)N1C/C=C\COc2cccc(c2)Nc2cc1ncn2 [I-1] |  |  |  | 

— US10265321B2, “Uses of salt-inducible kinase (SIK) inhibitors” (Dana-Farber Cancer Institute, Inc., priority 2014, dated 2019)
